Reference: US8247211B2, “Glycopeptide antibiotics” (American Cyanamid Company, priority 2001, dated 2012)
Converted amounts (≈) assume the structure as drawn.

How the values were obtained:
Test in all cases: In vitro antibacterial evaluation: minimum inhibitory concentration (MIC), broth dilution method
Type in all cases: cell-based
[1] = system: Enterococcus sp.; conditions: 18 hours at 35° C.
Method: (§1) The minimum inhibitory concentration (MIC), the lowest concentration of the antibiotic which inhibits growth of the test organism, is determined by the broth dilution method using Muller-Hinton II […] (Baltimore Biological Laboratories) following the recommendations of the National Committee for Clinical Laboratory Standards [Methods for dilution antimicrobial susceptibility tests for bacteria that grow aerobically, approved standard M7-A2, National Committee for Clinical Laboratory Standards, Villanova, Pa].
(§2) An inoculum level of 5×10^5 CFU/mL, and a range of antibiotic concentrations (64-0.06 μg/mL) is used. […] The test organisms include a spectrum of Gram-positive bacteria comprised of Staphylococcus sp., Streptococcus sp. and Enterococcus sp. These organisms include recent clinical isolates that are resistant to methicillin, penicillin and/or vancomycin.

[2] = system: Escherichia coli; conditions: 18 hours at 35° C.
Method: as §1, §2

[3] = system: Staphylococcus sp.
Method: as §1, §2

[4] = system: Streptococcus sp.; conditions: 18 hours at 35° C.
Method: as §1, §2

[5] = Enterococcus faecalis (ATCC 29212)
[6] = Enterococcus faecalis (GC 2242)
[7] = Enterococcus faecalis (GC 2691)
[8] = Enterococcus faecalis (GC 3059)
[9] = Enterococcus faecalis (GC 4552)
[10] = Enterococcus faecalis (GC 4553)
[11] = Enterococcus faecalis (GC 4554)
[12] = Enterococcus faecalis (GC 6189)
[13] = broth dilution, inoculum 5×10^5 CFU/mL
[14] = Streptococcus agalactiae (GC 4564)
[15] = Streptococcus pneumoniae (ATCC 6301)
[16] = Streptococcus pneumoniae (GC 1894)
[17] = Streptococcus pneumoniae (GC 4565)
[18] = Streptococcus pyogenes (GC 4563)

CC(c1ccccc1)C1NC(=O)CNC(=O)C(CO)NC(=O)C(C(O)C2CNC(=N)N2C2OC(CO)C(O)C(O)C2O)NC(=O)C(C(O)C2CNC(=N)N2)NC(=O)C(Cc2ccc(OC3OC(CO)C(OC4OC(COCc5ccc(Oc6ccccc6)cc5)C(O)C(O)C4O)C(O)C3O)cc2)NC1=O (stereo not drawn) [Example 236, Cyclo[glycyl-β-methylphenylalanyl-O-[4-O-[6-O-(4-phenoxybenzyl)hexopyranosyl]hexopyranosyl]tyrosyl-3-(2-iminoimidazolidin-4-yl)seryl-3-(3-hexopyranosyl-2-iminoimidazolidin-4-yl)serylseryl]]
MIC Enterococcus avium (GC 4558) ([1]; Enterococcus avium (GC 4558)): 2 µg/mL (≈ 1.35 µM)
MIC Enterococcus faecalis (ATCC 29212) [1, 5]: 4 µg/mL (≈ 2.71 µM)
MIC Enterococcus faecalis (GC 2242) [1, 6]: 4 µg/mL (≈ 2.71 µM)
MIC Enterococcus faecalis (GC 2691) [1, 7]: 2 µg/mL (≈ 1.35 µM)
MIC Enterococcus faecalis (GC 3059) [1, 8]: 2 µg/mL (≈ 1.35 µM)
MIC Enterococcus faecalis (GC 4552) [1, 9]: 4 µg/mL (≈ 2.71 µM)
MIC Enterococcus faecalis (GC 4553) [1, 10]: 4 µg/mL (≈ 2.71 µM)
MIC Enterococcus faecalis (GC 4554) [1, 11]: 4 µg/mL (≈ 2.71 µM)
MIC Enterococcus faecalis (GC 6189) [1, 12]: 2 µg/mL (≈ 1.35 µM)
MIC Enterococcus faecium (GC 2243) ([1]; Enterococcus faecium (GC 2243)): 4 µg/mL (≈ 2.71 µM)
MIC Enterococcus faecium (GC 4556) ([1]; Enterococcus faecium (GC 4556)): 4 µg/mL (≈ 2.71 µM)
MIC Enterococcus faecium (GC 4557) ([1]; Enterococcus faecium (GC 4557)): 2 µg/mL (≈ 1.35 µM)
MIC Enterococcus faecalis (GC 2242) [1, 13]: 4 µg/mL (≈ 2.71 µM)
MIC Enterococcus faecalis (GC 2691) [1, 13]: 2 µg/mL (≈ 1.35 µM)
MIC Enterococcus faecalis (GC 3059) [1, 13]: 2 µg/mL (≈ 1.35 µM)
MIC Escherichia coli (ATCC 25922) [2]: >64 µg/mL
MIC Escherichia coli (GC 4559) [2]: >64 µg/mL
MIC Escherichia coli (GC 4560) [2]: 1 µg/mL (≈ 0.677 µM)
MIC Coagulase Negative Staphylococcus (GC 4547) ([3]; Coagulase Negative Staphylococcus (GC 4547), 18 hours at 35° C.): 2 µg/mL (≈ 1.35 µM)
MIC Coagulase Negative Staphylococcus (GC 4548) ([3]; Coagulase Negative Staphylococcus (GC 4548), 18 hours at 35° C.): 0.5 µg/mL (≈ 0.338 µM)
MIC Coagulase Negative Staphylococcus (GC 4549) ([3]; Coagulase Negative Staphylococcus (GC 4549), 18 hours at 35° C.): 0.5 µg/mL (≈ 0.338 µM)
MIC Coagulase Negative Staphylococcus (GC 4551) ([3]; Coagulase Negative Staphylococcus (GC 4551), 18 hours at 35° C.): 2 µg/mL (≈ 1.35 µM)
MIC Coagulase Negative Staphylococcus (GC 6257) ([3]; Coagulase Negative Staphylococcus (GC 6257), 18 hours at 35° C.): 1 µg/mL (≈ 0.677 µM)
MIC Staphylococcus aureus (ATCC 29213) ([3]; Staphylococcus aureus (ATCC 29213), 18 hours at 35° C.): 2 µg/mL (≈ 1.35 µM)
MIC Staphylococcus aureus (GC 1131) ([3]; Staphylococcus aureus (GC 1131), 18 hours at 35° C.): 2 µg/mL (≈ 1.35 µM)
MIC Staphylococcus aureus (GC 3051) ([3]; Staphylococcus aureus (GC 3051), 18 hours at 35° C.): 2 µg/mL (≈ 1.35 µM)
MIC Staphylococcus aureus (GC 3053) ([3]; Staphylococcus aureus (GC 3053), 18 hours at 35° C.): 2 µg/mL (≈ 1.35 µM)
MIC Staphylococcus aureus (GC 4541) ([3]; Staphylococcus aureus (GC 4541), 18 hours at 35° C.): 2 µg/mL (≈ 1.35 µM)
MIC Staphylococcus aureus (GC 4542) ([3]; Staphylococcus aureus (GC 4542), 18 hours at 35° C.): 4 µg/mL (≈ 2.71 µM)
MIC Staphylococcus aureus (GC 4544) ([3]; Staphylococcus aureus (GC 4544), 18 hours at 35° C.): 2 µg/mL (≈ 1.35 µM)
MIC Staphylococcus aureus (GC 4545) ([3]; Staphylococcus aureus (GC 4545), 18 hours at 35° C.): 2 µg/mL (≈ 1.35 µM)
MIC Staphylococcus aureus-SMITH (GC 4543) ([3]; Staphylococcus aureus-SMITH (GC 4543), 18 hours at 35° C.): 2 µg/mL (≈ 1.35 µM)
MIC Staphylococcus haemolyticus (GC 4546) ([3]; Staphylococcus haemolyticus (GC 4546), 18 hours at 35° C.): 2 µg/mL (≈ 1.35 µM)
MIC Streptococcus agalactiae (GC 4564) [4, 14]: 0.12 µg/mL (≈ 0.0812 µM)
MIC Streptococcus pneumoniae (ATCC 6301) [4, 15]: <0.06 µg/mL
MIC Streptococcus pneumoniae (GC 1894) [4, 16]: <0.06 µg/mL
MIC Streptococcus pneumoniae (GC 4565) [4, 17]: <0.06 µg/mL
MIC Streptococcus pyogenes (GC 4563) [4, 18]: <0.06 µg/mL
MIC Streptococcus agalactiae (GC 4564) [4, 13]: 0.12 µg/mL (≈ 0.0812 µM)
MIC Streptococcus pneumoniae (ATCC 6301) [4, 13]: <0.06 µg/mL
MIC Streptococcus pneumoniae (GC 1894) [4, 13]: <0.06 µg/mL
MIC Streptococcus pneumoniae (GC 4565) [4, 13]: <0.06 µg/mL
MIC Streptococcus pyogenes (GC 4563) [4, 13]: <0.06 µg/mL

COc1ccc2cc(C3OCC4OC(OC5C(CO)OC(Oc6ccc(CC7NC(=O)C(C(C)c8ccccc8)NC(=O)CNC(=O)C(CO)NC(=O)C(CC8CNC(=N)N8C8OC(CO)C(O)C(O)C8O)NC(=O)C(CC8CNC(=N)N8)NC7=O)cc6)C(O)C5O)C(O)C(O)C4O3)ccc2c1 (centres unmarked) [Example 190]
MIC Enterococcus avium (GC 4558) ([1]; Enterococcus avium (GC 4558)): 16 µg/mL (≈ 11.2 µM)
MIC Enterococcus faecalis (ATCC 29212) [1, 5]: 32 µg/mL (≈ 22.4 µM)
MIC Enterococcus faecalis (GC 2242) [1, 6]: 32 µg/mL (≈ 22.4 µM)
MIC Enterococcus faecalis (GC 2691) [1, 7]: 32 µg/mL (≈ 22.4 µM)
MIC Enterococcus faecalis (GC 3059) [1, 8]: 32 µg/mL (≈ 22.4 µM)
MIC Enterococcus faecalis (GC 4552) [1, 9]: 32 µg/mL (≈ 22.4 µM)
MIC Enterococcus faecalis (GC 4553) [1, 10]: 32 µg/mL (≈ 22.4 µM)
MIC Enterococcus faecalis (GC 4554) [1, 11]: 32 µg/mL (≈ 22.4 µM)
MIC Enterococcus faecalis (GC 6189) [1, 12]: 32 µg/mL (≈ 22.4 µM)
MIC Enterococcus faecium (GC 2243) ([1]; Enterococcus faecium (GC 2243)): 32 µg/mL (≈ 22.4 µM)
MIC Enterococcus faecium (GC 4556) ([1]; Enterococcus faecium (GC 4556)): 32 µg/mL (≈ 22.4 µM)
MIC Enterococcus faecium (GC 4557) ([1]; Enterococcus faecium (GC 4557)): 8 µg/mL (≈ 5.59 µM)
MIC Enterococcus avium (GC 4558) [1, 13]: 16 µg/mL (≈ 11.2 µM)
MIC Enterococcus faecalis (ATCC 29212) [1, 13]: 32 µg/mL (≈ 22.4 µM)
MIC Enterococcus faecalis (GC 2242) [1, 13]: 32 µg/mL (≈ 22.4 µM)
MIC Enterococcus faecalis (GC 2691) [1, 13]: 32 µg/mL (≈ 22.4 µM)
MIC Enterococcus faecalis (GC 3059) [1, 13]: 32 µg/mL (≈ 22.4 µM)
MIC Enterococcus faecalis (GC 4552) [1, 13]: 32 µg/mL (≈ 22.4 µM)
MIC Enterococcus faecalis (GC 4553) [1, 13]: 32 µg/mL (≈ 22.4 µM)
MIC Enterococcus faecalis (GC 4554) [1, 13]: 32 µg/mL (≈ 22.4 µM)
MIC Enterococcus faecalis (GC 6189) [1, 13]: 32 µg/mL (≈ 22.4 µM)
MIC Enterococcus faecium (GC 2243) [1, 13]: 32 µg/mL (≈ 22.4 µM)
MIC Enterococcus faecium (GC 4556) [1, 13]: 32 µg/mL (≈ 22.4 µM)
MIC Enterococcus faecium (GC 4557) [1, 13]: 8 µg/mL (≈ 5.59 µM)
MIC Escherichia coli (ATCC 25922) [2]: >64 µg/mL
MIC Escherichia coli (GC 4559) [2]: >64 µg/mL
MIC Escherichia coli (GC 4560) [2]: 16 µg/mL (≈ 11.2 µM)
MIC Staphylococcus aureus (ATCC 29213) ([3]; strain ATCC 29213): 16 µg/mL (≈ 11.2 µM)
MIC Staphylococcus aureus (GC 1131) ([3]; strain GC 1131): 16 µg/mL (≈ 11.2 µM)
MIC Staphylococcus aureus (GC 3051) ([3]; strain GC 3051): 16 µg/mL (≈ 11.2 µM)
MIC Staphylococcus aureus (GC 3053) ([3]; strain GC 3053): 16 µg/mL (≈ 11.2 µM)
MIC Staphylococcus aureus (GC 4541) ([3]; strain GC 4541): 8 µg/mL (≈ 5.59 µM)
MIC Staphylococcus aureus (GC 4542) ([3]; strain GC 4542): 4 µg/mL (≈ 2.79 µM)
MIC Staphylococcus aureus-SMITH (GC 4543) ([3]; strain GC 4543): 4 µg/mL (≈ 2.79 µM)
MIC Staphylococcus aureus (GC 4544) ([3]; strain GC 4544): 16 µg/mL (≈ 11.2 µM)
MIC Staphylococcus aureus (GC 4545) ([3]; strain GC 4545): 16 µg/mL (≈ 11.2 µM)
MIC Staphylococcus haemolyticus (GC 4546) ([3]; strain GC 4546): 8 µg/mL (≈ 5.59 µM)
MIC Coagulase Negative Staphylococcus (GC 4547) ([3]; strain GC 4547): 8 µg/mL (≈ 5.59 µM)
MIC Coagulase Negative Staphylococcus (GC 4548) ([3]; strain GC 4548): 8 µg/mL (≈ 5.59 µM)
MIC Coagulase Negative Staphylococcus (GC 4549) ([3]; strain GC 4549): 8 µg/mL (≈ 5.59 µM)
MIC Coagulase Negative Staphylococcus (GC 4551) ([3]; strain GC 4551): 16 µg/mL (≈ 11.2 µM)
MIC Coagulase Negative Staphylococcus (GC 6257) ([3]; strain GC 6257): 8 µg/mL (≈ 5.59 µM)
MIC Streptococcus agalactiae (GC 4564) [4, 14]: 16 µg/mL (≈ 11.2 µM)
MIC Streptococcus pneumoniae (ATCC 6301) [4, 15]: 8 µg/mL (≈ 5.59 µM)
MIC Streptococcus pneumoniae (GC 1894) [4, 16]: 4 µg/mL (≈ 2.79 µM)
MIC Streptococcus pneumoniae (GC 4565) [4, 17]: 8 µg/mL (≈ 5.59 µM)
MIC Streptococcus pyogenes (GC 4563) [4, 18]: 16 µg/mL (≈ 11.2 µM)
MIC Streptococcus agalactiae (GC 4564) [4, 13]: 16 µg/mL (≈ 11.2 µM)
MIC Streptococcus pneumoniae (ATCC 6301) [4, 13]: 8 µg/mL (≈ 5.59 µM)
MIC Streptococcus pneumoniae (GC 1894) [4, 13]: 4 µg/mL (≈ 2.79 µM)
MIC Streptococcus pneumoniae (GC 4565) [4, 13]: 8 µg/mL (≈ 5.59 µM)
MIC Streptococcus pyogenes (GC 4563) [4, 13]: 16 µg/mL (≈ 11.2 µM)
